# In ChEMBL document CHEMBL4665869, “New thiazolopyrimidine as anticancer agents: Synthesis, biological evaluation, DNA binding, molecular modeling and ADMET study” (Bioorg Med Chem Lett, 2020):
# What was measured:
# NCI-H522 = test: Growth inhibition of human NCI-H522 cells at 10 uM relative to control; assay type: functional; details: read-out: GI
# 786-0 = test: Growth inhibition of human 786-0 cells at 10 uM relative to control; assay type: functional; details: read-out: GI
# MOLT-4 = test: Growth inhibition of human MOLT-4 cells at 10 uM relative to control; assay type: functional; details: read-out: GI
# HCT-15 = test: Growth inhibition of human HCT-15 cells at 10 uM relative to control; assay type: functional; details: read-out: GI
# U-251 = test: Growth inhibition of human U-251 cells at 10 uM relative to control; assay type: functional; details: read-out: GI
# SF-539 = test: Growth inhibition of human SF-539 cells at 10 uM relative to control; assay type: functional; details: read-out: GI
# NCI-H460 = test: Growth inhibition of human NCI-H460 cells at 10 uM relative to control; assay type: functional; details: read-out: GI
# COLO 205 = test: Growth inhibition of human COLO 205 cells at 10 uM relative to control; assay type: functional; details: read-out: GI
# SK-MEL-2 = test: Growth inhibition of human SK-MEL-2 cells at 10 uM relative to control; assay type: functional; details: read-out: GI
# KM12 = test: Growth inhibition of human KM12 cells at 10 uM relative to control; assay type: functional; details: read-out: GI
# SNB-75 = test: Growth inhibition of human SNB-75 cells at 10 uM relative to control; assay type: functional; details: read-out: GI
# MDA-MB-231 = test: Growth inhibition of human MDA-MB-231 cells at 10 uM relative to control; assay type: functional; details: read-out: GI
# NCI-H23 = test: Growth inhibition of human NCI-H23 cells at 10 uM relative to control; assay type: functional; details: read-out: GI
# SNB-19 = test: Growth inhibition of human SNB-19 cells at 10 uM relative to control; assay type: functional; details: read-out: GI
# OVCAR-4 = test: Growth inhibition of human OVCAR-4 cells at 10 uM relative to control; assay type: functional; details: read-out: GI
# SW-620 = test: Growth inhibition of human SW-620 cells at 10 uM relative to control; assay type: functional; details: read-out: GI
# RXF 393 = test: Growth inhibition of human RXF 393 cells at 10 uM relative to control; assay type: functional; details: read-out: GI
# BT-549 = test: Growth inhibition of human BT-549 cells at 10 uM relative to control; assay type: functional; details: read-out: GI
# K562 = test: Growth inhibition of human K562 cells at 10 uM relative to control; assay type: functional; details: read-out: GI
# ACHN = test: Growth inhibition of human ACHN cells at 10 uM relative to control; assay type: functional; details: read-out: GI
# SK-OV-3 = test: Growth inhibition of human SK-OV-3 cells at 10 uM relative to control; assay type: functional; details: read-out: GI
# HOP-62 = test: Growth inhibition of human HOP-62 cells at 10 uM relative to control; assay type: functional; details: read-out: GI
# PC-3 = test: Growth inhibition of human PC-3 cells at 10 uM relative to control; assay type: functional; details: read-out: GI
# NCI-H322M = test: Growth inhibition of human NCI-H322M cells at 10 uM relative to control; assay type: functional; details: read-out: GI
# Hs-578T = test: Growth inhibition of human Hs-578T cells at 10 uM relative to control; assay type: functional; details: read-out: GI
# Malme-3M = test: Growth inhibition of human Malme-3M cells at 10 uM relative to control; assay type: functional; details: read-out: GI
# CCRF-CEM = test: Growth inhibition of human CCRF-CEM cells at 10 uM relative to control; assay type: functional; details: read-out: GI
# SR = test: Growth inhibition of human SR cells at 10 uM relative to control; assay type: functional; details: read-out: GI
# HT-29 = test: Growth inhibition of human HT-29 cells at 10 uM relative to control; assay type: functional; details: read-out: GI
# UO-31 = test: Growth inhibition of human UO-31 cells at 10 uM relative to control; assay type: functional; details: read-out: GI
# MDA-MB-468 = test: Growth inhibition of human MDA-MB-468 cells at 10 uM relative to control; assay type: functional; details: read-out: GI
# DU-145 = test: Growth inhibition of human DU-145 cells at 10 uM relative to control; assay type: functional; details: read-out: GI
# NCI-H226 = test: Growth inhibition of human NCI-H226 cells at 10 uM relative to control; assay type: functional; details: read-out: GI
# NCI/ADR-RES = test: Growth inhibition of human NCI/ADR-RES cells at 10 uM relative to control; assay type: functional; details: read-out: GI
# A498 = test: Growth inhibition of human A498 cells at 10 uM relative to control; assay type: functional; details: read-out: GI
# UACC-62 = test: Growth inhibition of human UACC-62 cells at 10 uM relative to control; assay type: functional; details: read-out: GI
# SF-295 = test: Growth inhibition of human SF-295 cells at 10 uM relative to control; assay type: functional; details: read-out: GI
# A549 = test: Growth inhibition of human A549 cells at 10 uM relative to control; assay type: functional; details: read-out: GI
# SN12C = test: Growth inhibition of human SN12C cells at 10 uM relative to control; assay type: functional; details: read-out: GI
# HCT-116 = test: Growth inhibition of human HCT-116 cells at 10 uM relative to control; assay type: functional; details: read-out: GI
# T47D = test: Growth inhibition of human T47D cells at 10 uM relative to control; assay type: functional; details: read-out: GI
# OVCAR-8 = test: Growth inhibition of human OVCAR-8 cells at 10 uM relative to control; assay type: functional; details: read-out: GI
# RPMI-8226 = test: Growth inhibition of human RPMI-8226 cells at 10 uM relative to control; assay type: functional; details: read-out: GI
# HCC 2998 = test: Growth inhibition of human HCC 2998 cells at 10 uM relative to control; assay type: functional; details: read-out: GI
# OVCAR-5 = test: Growth inhibition of human OVCAR-5 cells at 10 uM relative to control; assay type: functional; details: read-out: GI
# MCF7 = test: Growth inhibition of human MCF7 cells at 10 uM relative to control; assay type: functional; details: read-out: GI
# DNA = test: Displacement of methyl green from DNA (unknown origin) assessed as DNA intercalation after 24 hrs by colorimetric assay; assay type: nucleic-acid assay
# MDA-MB-435 = test: Growth inhibition of human MDA-MB-435 cells at 10 uM relative to control; assay type: functional; details: read-out: GI
# LOX IMVI = test: Growth inhibition of human LOX IMVI cells at 10 uM relative to control; assay type: functional; details: read-out: GI
# IGROV-1 = test: Growth inhibition of human IGROV-1 cells at 10 uM relative to control; assay type: functional; details: read-out: GI
# HOP-92 = test: Growth inhibition of human HOP-92 cells at 10 uM relative to control; assay type: functional; details: read-out: GI
# HL-60(TB) = test: Growth inhibition of human HL-60(TB) cells at 10 uM relative to control; assay type: functional; details: read-out: GI
# SF-268 = test: Growth inhibition of human SF-268 cells at 10 uM relative to control; assay type: functional; details: read-out: GI
# TK-10 = test: Growth inhibition of human TK-10 cells at 10 uM relative to control; assay type: functional; details: read-out: GI
# SK-MEL-28 = test: Growth inhibition of human SK-MEL-28 cells at 10 uM relative to control; assay type: functional; details: read-out: GI
# CAKI-1 = test: Growth inhibition of human CAKI-1 cells at 10 uM relative to control; assay type: functional; details: read-out: GI
# SK-MEL-5 = test: Growth inhibition of human SK-MEL-5 cells at 10 uM relative to control; assay type: functional; details: read-out: GI
# M14 = test: Growth inhibition of human M14 cells at 10 uM relative to control; assay type: functional; details: read-out: GI
compound,measurement,setting,value
COc1ccc(/C=C/C2=CC(c3ccc(OC)c(OC)c3)N3C(C)=CSC3=N2)cc1OC (centres undefined),inhibition of growth at 10 µM,NCI-H522,< 10%
same,inhibition of growth at 10 µM,786-0,< 10%
same,inhibition of growth at 10 µM,MOLT-4,< 10%
same,inhibition of growth at 10 µM,HCT-15,< 10%
same,inhibition of growth at 10 µM,U-251,< 10%
same,inhibition of growth at 10 µM,SF-539,< 10%
same,inhibition of growth at 10 µM,NCI-H460,< 10%
same,inhibition of growth at 10 µM,COLO 205,< 10%
same,inhibition of growth at 10 µM,SK-MEL-2,< 10%
same,inhibition of growth at 10 µM,KM12,< 10%
same,inhibition of growth at 10 µM,SNB-75,< 10%
same,inhibition of growth at 10 µM,MDA-MB-231,< 10%
same,inhibition of growth at 10 µM,NCI-H23,< 10%
same,inhibition of growth at 10 µM,SNB-19,< 10%
same,inhibition of growth at 10 µM,OVCAR-4,< 10%
same,inhibition of growth at 10 µM,SW-620,< 10%
same,inhibition of growth at 10 µM,RXF 393,< 10%
same,inhibition of growth at 10 µM,BT-549,< 10%
same,inhibition of growth at 10 µM,K562,< 10%
same,inhibition of growth at 10 µM,ACHN,< 10%
same,inhibition of growth at 10 µM,SK-OV-3,< 10%
same,inhibition of growth at 10 µM,HOP-62,< 10%
same,inhibition of growth at 10 µM,PC-3,< 10%
same,inhibition of growth at 10 µM,NCI-H322M,< 10%
same,inhibition of growth at 10 µM,Hs-578T,< 10%
same,inhibition of growth at 10 µM,Malme-3M,< 10%
same,inhibition of growth at 10 µM,CCRF-CEM,< 10%
same,inhibition of growth at 10 µM,SR,< 10%
same,inhibition of growth at 10 µM,HT-29,< 10%
same,inhibition of growth at 10 µM,UO-31,11.7%
same,inhibition of growth at 10 µM,MDA-MB-468,< 10%
same,inhibition of growth at 10 µM,DU-145,< 10%
same,inhibition of growth at 10 µM,NCI-H226,< 10%
same,inhibition of growth at 10 µM,NCI/ADR-RES,< 10%
same,inhibition of growth at 10 µM,A498,17.6%
same,inhibition of growth at 10 µM,UACC-62,< 10%
same,inhibition of growth at 10 µM,SF-295,< 10%
same,inhibition of growth at 10 µM,A549,< 10%
same,inhibition of growth at 10 µM,SN12C,< 10%
same,inhibition of growth at 10 µM,HCT-116,< 10%
same,inhibition of growth at 10 µM,T47D,< 10%
same,inhibition of growth at 10 µM,OVCAR-8,< 10%
same,inhibition of growth at 10 µM,RPMI-8226,< 10%
same,inhibition of growth at 10 µM,HCC 2998,< 10%
same,inhibition of growth at 10 µM,OVCAR-5,< 10%
same,inhibition of growth at 10 µM,MCF7,< 10%
same,IC50,DNA,72.54 µg/mL
same,inhibition of growth at 10 µM,MDA-MB-435,< 10%
same,inhibition of growth at 10 µM,LOX IMVI,< 10%
same,inhibition of growth at 10 µM,IGROV-1,< 10%
same,inhibition of growth at 10 µM,HOP-92,18%
same,inhibition of growth at 10 µM,HL-60(TB),< 10%
same,inhibition of growth at 10 µM,SF-268,< 10%
same,inhibition of growth at 10 µM,TK-10,< 10%
same,inhibition of growth at 10 µM,SK-MEL-28,< 10%
same,inhibition of growth at 10 µM,CAKI-1,< 10%
same,inhibition of growth at 10 µM,SK-MEL-5,< 10%
same,inhibition of growth at 10 µM,M14,< 10%
CCOC(=O)C1=CSC2=NC(/C=C/c3cccs3)=CC(c3cccs3)N12 (centres undefined),IC50,DNA,66.01 µg/mL
CC1=CSC2=NC(/C=C/c3ccc(C)cc3)=CC(c3ccc(C)cc3)N12 (centres undefined),IC50,DNA,83.41 µg/mL
Cc1ccc(/C=C/C2=CC(c3ccc(C)cc3)N3C=CSC3=N2)cc1 (centres undefined),IC50,DNA,62.74 µg/mL
COc1cc(/C=C/C2=CC(c3cc(OC)c(OC)c(OC)c3)N3C=CSC3=N2)cc(OC)c1OC (centres undefined),IC50,DNA,55.42 µg/mL
Clc1ccc(/C=C/C2=CC(c3ccc(Cl)cc3)N3C=CSC3=N2)cc1 (centres undefined),IC50,DNA,56.33 µg/mL
CC1=CSC2=NC(/C=C/c3ccc(Cl)cc3)=CC(c3ccc(Cl)cc3)N12 (centres undefined),IC50,DNA,50.91 µg/mL
